Measurements from ChEMBL document CHEMBL1126956, “Synthesis and biological evaluation of cholecystokinin analogs in which the Asp-Phe-NH2 moiety has been replaced by a 3-amino-7-phenylheptanoic acid or a 3-amino-6-(phenyloxy)hexanoic acid” (J Med Chem, 1993).
Where a SMILES comes first, the peptide text is derived from it. [ ]: non-standard residue; d: D form. The star is where a group is joined. sY = N[C@@H](Cc1ccc(OS(=O)(=O)O)cc1)C(=O)O; NHPhenethyl = c1ccc(CCN*)cc1; OCH2CH2Ph = c1ccc(CCO*)cc1; Nle = CCCC[C@H](N)C(=O)O; Boc = CC(C)(C)OC(=O)*

What was measured:
[1] = molecular target: T1, Gastrin/cholecystokinin type B receptor (Homo sapiens, UniProt P32239); assay: Inhibition of [125I]BH-CCK- binding to cholecystokinin type B receptor from jurkat Tcells; assay type: cell-based
T1 sequence (P32239 whole entry): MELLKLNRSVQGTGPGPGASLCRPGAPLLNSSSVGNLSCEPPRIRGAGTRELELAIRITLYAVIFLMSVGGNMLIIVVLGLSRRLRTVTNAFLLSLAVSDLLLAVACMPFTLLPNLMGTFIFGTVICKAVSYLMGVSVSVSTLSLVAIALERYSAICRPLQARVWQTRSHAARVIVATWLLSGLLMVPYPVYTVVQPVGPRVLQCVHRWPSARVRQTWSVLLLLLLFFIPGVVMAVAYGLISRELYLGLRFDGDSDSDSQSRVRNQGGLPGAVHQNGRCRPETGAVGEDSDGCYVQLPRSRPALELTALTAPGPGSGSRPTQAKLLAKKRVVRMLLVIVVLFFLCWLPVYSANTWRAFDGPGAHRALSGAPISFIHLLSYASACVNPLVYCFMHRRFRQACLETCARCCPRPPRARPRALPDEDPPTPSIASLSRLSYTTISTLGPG

[2] = molecular target: Cholecystokinin receptor type A (Rattus norvegicus) (UniProt P30551); assay: Inhibition of [125I]BH-CCK- binding to peripheral cholecystokinin type A receptor from rat pancreatic acini
[3] = molecular target: Gastrin/cholecystokinin type B receptor (Cavia porcellus); assay: Inhibition of [125I]BH-CCK- binding to cholecystokinin type B receptor from guinea pig brain membranes

Row | Compound | IC50 [1] | IC50 [2] | IC50 [3]
1 | CCCC[C@H](NC(=O)[C@@H](Cc1c[nH]c2ccccc12)NC(=O)CNC(=O)[C@H](CCSC)NC(=O)[C@H](Cc1ccc(OS(=O)(=O)O)cc1)NC(=O)OC(C)(C)C)C(=O)N[C@@H](CC(=O)O)C(=O)OCCc1ccccc1 | 0.21 µM | – | –
2 | CCCC[C@H](NC(=O)[C@H](Cc1ccc(OS(=O)(=O)O)cc1)NC(=O)OC(C)(C)C)C(=O)NCC(=O)N[C@@H](Cc1c[nH]c2ccccc12)C(=O)N[C@@H](CCCC)C(=O)N[C@@H](CC(=O)O)C(=O)NCCc1ccccc1 (Boc-[sY][Nle]GW[Nle]D-NHPhenethyl) | 0.013 µM | 0.03 µM | 0.01 µM
3 | CCCC[C@H](NC(=O)[C@H](Cc1ccc(OS(=O)(=O)O)cc1)NC(=O)OC(C)(C)C)C(=O)NCC(=O)N[C@@H](Cc1c[nH]c2ccccc12)C(=O)N[C@@H](CCCC)C(=O)N[C@@H](CC(=O)O)C(=O)OCCc1ccccc1 (Boc-[sY][Nle]GW[Nle]D-OCH2CH2Ph) | 0.002 µM | 0.003 µM | –
